Laboratory results published in PubChem BioAssay (NCI).
Several values for one entry are separate records, joined by “and”; a condition that tells them apart may be missing. Equal entries are not always repeated.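 Where inhibition never reached the appropriate level, the endpoint shown equals the highest concentration tested. Otherwise, values were interpolated linearly from a five-concentration, 48-hour dose response in 96-well plates. GI50 = concentration required for 50% inhibition of growth. TGI is the concentration that stops growth completely.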 Where a SMILES comes first, the peptide text is derived from it. The star is where a group is joined. Boc = CC(C)(C)OC(=O)*; nBu = CCCC*

What was measured:
Experiment in all cases: growth of human tumour cells (NCI), 48 h
[1] = test system: HS 578T breast
[2] = test system: SK-MEL-28 melanoma
[3] = test system: NCI/ADR-RES ovarian
[4] = test system: SW-620 colon
[5] = test system: OVCAR-8 ovarian
[6] = test system: 786-0 renal
[7] = test system: NCI-H23 lung
[8] = test system: SK-MEL-2 melanoma
[9] = test system: SN12C renal
[10] = test system: MCF7 breast
[11] = test system: ACHN renal
[12] = test system: OVCAR-5 ovarian

SMILES	TGI [1]	TGI [2]	TGI [3]	TGI [4]	TGI [5]	TGI [6]	TGI [7]	TGI [8]	TGI [9]	TGI [10]	TGI [11]	TGI [12]	GI50 [12]	GI50 [1]	GI50 [2]	GI50 [11]	GI50 [4]	GI50 [8]	GI50 [10]	GI50 [9]
N#C/C(=C(/O)CCl)c1nc2ccccc2o1	> 100 µM	3.5 µM	5.4 µM	> 100 µM	14.9 µM	41.3 µM	25.4 µM	11.6 µM	9.33 µM	8.59 µM										
CC1(C)OC[C@@H]([C@@]2(COC(c3ccccc3)(c3ccccc3)c3ccccc3)CC=CC(=O)O2)O1	> 100 µM	> 100 µM		> 100 µM	> 100 µM	> 100 µM	> 100 µM	31.1 µM	97.1 µM	54.6 µM	> 100 µM	> 100 µM								
Oc1ccccc1C=Nc1ccc(-c2nc3ccccc3s2)cc1	> 100 µM	> 100 µM	> 100 µM	> 100 µM	> 100 µM	> 100 µM	> 100 µM	50.5 µM	> 100 µM		73 µM	> 100 µM								
O=C(Cc1nc2ccccc2[nH]c1=O)c1c[nH]c2ccccc12	> 100 µM		28.5 µM	> 100 µM	45.9 µM	29.3 µM	> 100 µM	28.9 µM	54.3 µM	> 100 µM	22.3 µM	57.1 µM								
Cc1cc(-c2nc3c(F)cccc3s2)ccc1N	> 100 µM	> 100 µM	> 100 µM	> 100 µM	> 100 µM	> 100 µM	> 100 µM	> 100 µM	> 100 µM	> 100 µM	> 100 µM	76.2 µM	1.68 µM							
C=C1C(O)C2(O)OCC34C(CC5C(C)=CC(=O)C(O)C5(C)C23)OC(=O)C(OC(=O)C/C=C/CCCCCCCC)C14 (configuration not stated)		0.0311 µM	2.55 µM	0.0471 µM	0.0241 µM		0.0815 µM	0.0361 µM	0.193 µM			0.773 µM								
COC(=O)/C=C\C(C#N)(C#N)N=Cc1ccc(OC)cc1	33.7 µM	12.8 µM	9.09 µM	14.6 µM	9.46 µM	4.62 µM	28.3 µM	35.5 µM	30.9 µM	7.44 µM	8.64 µM	40.7 µM								
COc1ccc(C2C3CCc4ccccc4C3=NN2S(=O)(=O)c2cccc(C(=O)O)c2OC)cc1 (configuration not stated)			11.7 µM	> 100 µM	> 100 µM	> 100 µM	> 100 µM	60 µM	> 100 µM	6.55 µM	63.9 µM	> 100 µM								
CC(C)CC(N)C(=O)NC(C(=O)NC(CCCNC(=N)N)C(=O)NC(CS)C(=O)NC1CSCC(C(=O)NC(Cc2ccccc2)C(=O)NC(C(=O)NC(CCCNC(=N)N)C(=O)O)C(C)C)NC(=O)C2CCCN2C(=O)C(CCCCN)NC(=O)C2CCCN2C(=O)C2CCCN2C(=O)C(Cc2ccc(O)cc2)NC(=O)C(CO)NC(=O)C(CCCCN)NC(=O)C(C(C)O)NC(=O)C(Cc2c[nH]c3ccccc23)NC1=O)C(C)C (configuration not stated)	> 25 µM	> 25 µM	> 25 µM	> 25 µM	> 25 µM	> 25 µM	> 25 µM	> 25 µM	> 25 µM	> 25 µM	> 25 µM	> 25 µM								
COC(=O)c1c(O)ccc2c1c1cc3ccccc3c(O)c1n2CCc1ccc(OC)c(OC)c1	> 100 µM	91.1 µM	> 100 µM		> 100 µM	> 100 µM	> 100 µM	> 100 µM	> 100 µM	> 100 µM	> 100 µM	> 100 µM								
Cc1c(-c2ccccc2)[nH]c2cn[nH]c(=O)c12	> 100 µM	> 100 µM	> 100 µM	> 100 µM	> 100 µM	> 100 µM	> 100 µM	> 100 µM		> 100 µM	> 100 µM	> 100 µM								
CCCCOc1ccc(CC(NC(=O)OC(C)(C)C)C(=O)NC(C)C(=O)NC(Cc2ccccc2)C(=O)NCC(N)=O)cc1 (configuration not stated) (Boc-Y(nBu)AFG-NH2; configuration not given here)	> 100 µM	> 100 µM	> 100 µM	> 100 µM	> 100 µM	> 100 µM	> 100 µM	51 µM	> 100 µM	> 100 µM	> 100 µM	> 100 µM								
Cc1ccc(-c2cn3c(nc4ccccc43)c(/C=C/c3ccco3)n2)cc1	84.2 µM	> 100 µM	> 100 µM	> 100 µM		> 100 µM	> 100 µM	72.9 µM	> 100 µM	> 100 µM	> 100 µM	> 100 µM								
C/C(C=O)=C/[C@@]1(C)O[C@@H](C)[C@@](C)(O)[C@@H]1O	> 100 µM	> 100 µM	56.1 µM	> 100 µM	40 µM	34.6 µM	> 100 µM	> 100 µM	> 100 µM	> 100 µM	44.4 µM	> 100 µM								
C#C[C@]1(O)CC[C@H]2[C@@H]3CCc4cc(O)ccc4[C@H]3CC[C@@]21C		> 100 µM		> 100 µM	> 100 µM	> 100 µM	69.4 µM	82.9 µM	> 100 µM		> 100 µM	> 100 µM								
O=C(Nc1ccccc1)Oc1ccc(C(=S)Nc2ccc(Br)cc2)cc1	> 100 µM	46.4 µM	39.7 µM	> 100 µM	29.2 µM	52.2 µM	37.2 µM	47.8 µM		60.9 µM	97.9 µM	46.4 µM								

SMILES	TGI [1]	TGI [2]	TGI [3]	TGI [4]	TGI [5]	TGI [6]	TGI [7]	TGI [8]	TGI [9]	TGI [10]	TGI [11]	TGI [12]	GI50 [12]	GI50 [1]	GI50 [2]	GI50 [11]	GI50 [4]	GI50 [8]	GI50 [10]	GI50 [9]
O=C1c2c(Br)sc(Br)c2[C@@H](O)[C@H]1O	63.5 µM	41 µM	56.5 µM	12.3 µM	> 44.4 µM	28.5 µM	21 µM	32.6 µM	32.8 µM	33 µM	33.5 µM	36.6 µM								
CN(C)c1ccc(-c2ccc(-c3ccc(C(=N)N)cn3)o2)cc1	4.07 µM	3.36 µM		2.41 µM				3.65 µM		3.52 µM	3.13 µM	3.02 µM	1.62 µM	1.9 µM	1.76 µM	1.75 µM	0.774 µM	1.96 µM	1.61 µM	
COc1ccc(N2C(=O)C(=O)C3(CCCCC3)C2=O)c2ccccc12	> 10 µM	> 10 µM	> 10 µM	> 10 µM	> 10 µM		> 10 µM	> 10 µM	> 10 µM	> 10 µM	> 10 µM	> 10 µM								
O=c1c2cc(O)ccc2n2nnc3ccc(NCCNCCO)c1c32		22.7 µM and 16.2 µM		> 88.5 µM and 14.8 µM	42 µM and 17.7 µM	> 100 µM and 24 µM	42.3 µM and 20.2 µM	23.5 µM and 13.5 µM	51.9 µM and 18.4 µM		> 64.8 µM and 22.1 µM	> 100 µM and 34 µM	22.5 µM and 9.69 µM		9.78 µM and 4.3 µM	7.68 µM and 3.58 µM	5.16 µM and 1.55 µM	9.4 µM and 4.34 µM		5.78 µM and 2.85 µM
CC(=O)c1ccc(Nc2c3ccccc3nc3occc23)cc1		50 µM		> 100 µM	7.01 µM	3.19 µM	17.1 µM	0.0645 µM	56.4 µM	< 0.128 µM	> 72.5 µM	> 100 µM								
O=[N+]([O-])c1ccc(N=Nc2c(O)[nH]c3ccccc23)c([N+](=O)[O-])c1	> 100 µM	> 100 µM	59.9 µM	> 100 µM	27.8 µM	28.8 µM	25.8 µM		38.8 µM	80.7 µM	19.2 µM	50.2 µM								
COc1ccccc1-c1c(C#N)c(N)[nH]c(=S)c1C#N	> 100 µM	> 100 µM	> 100 µM	> 100 µM	> 100 µM	> 100 µM	> 100 µM	> 100 µM	91.8 µM	> 100 µM	> 100 µM	> 100 µM								
Cc1ccc(-c2cc(-c3ccc(Cl)cc3)nc(/N=C3\C(=O)N(CN(C)C)c4ccccc43)n2)cc1	> 100 µM	> 100 µM	> 100 µM	> 100 µM	> 100 µM	> 100 µM	> 100 µM	> 100 µM	> 100 µM	> 100 µM	> 100 µM	> 100 µM								
Nc1nc(SCC(=O)c2ccc(Br)cc2)c2[nH]cnc2n1	81.9 µM	> 100 µM	93.6 µM	> 100 µM	> 100 µM	> 100 µM	> 100 µM	> 100 µM	> 100 µM	> 100 µM	> 100 µM	> 100 µM								
COc1cccc(C23CCN(C)C(CC(O)C2)C3)c1OC (configuration not stated)	> 100 µM	> 100 µM	> 100 µM	> 100 µM	> 100 µM	> 100 µM	> 100 µM	> 100 µM	> 100 µM	> 100 µM	> 100 µM	> 100 µM								
CN1CCC(C(O)(c2ccccc2)c2ccc(Br)cc2)CC1 (configuration not stated)	> 100 µM	35.1 µM	> 100 µM	61.1 µM	> 100 µM	27.5 µM	> 100 µM	30.3 µM	44.3 µM	64.2 µM	> 100 µM	93.3 µM								
O=P(NCCCO)(OCc1ccccc1)N(CCCl)CCCl (configuration not stated)		> 100 µM	> 100 µM	> 100 µM	> 100 µM		> 100 µM	> 100 µM	> 100 µM	> 100 µM		> 100 µM								
COc1ccc2nc3cc(Cl)ccc3c(NCCCN3CCN(CCCNc4ccc5nnn6c7ccccc7c(=O)c4c56)CC3)c2c1	> 25 µM	> 25 µM	> 25 µM	> 25 µM	> 25 µM	> 25 µM	> 25 µM	> 25 µM	> 25 µM	7.11 µM		> 25 µM								
COc1ccc(CCn2cncn2)cc1		> 100 µM		> 100 µM			> 100 µM		> 100 µM		> 100 µM	> 100 µM								
CCCCCCCCCCCCCCCc1nc(=S)[nH][nH]1		> 100 µM					> 100 µM	> 100 µM	> 100 µM		> 100 µM	> 100 µM								
CCOc1nc2c(N3CCCC3)nc(N3CCNCC3)nc2nc1NCc1ccccc1	3.53 µM	3.37 µM	8.6 µM	3.49 µM	4.1 µM	2.68 µM	3.45 µM	3.11 µM	2.96 µM	2.86 µM	4.55 µM	16.3 µM								
